Converted amounts (≈) assume the structure as drawn.
Columns and labels:
Test in all cases: CLSI broth dilution MIC determination
Type in all cases: cell-based
[1] = system: P. aeruginosa ATCC 27853; conditions: Pseudomonas aeruginosa, ATCC27853; P. aeruginosa ATCC 27853 (MP-3); read-out: MIC
[2] = system: P. aeruginosa MP-7 PAO1; conditions: Pseudomonas aeruginosa, read-out: MIC
[3] = system: A. baumannii ATCC 19606; conditions: Acinetobacter baumannii, ATCC19606; A. baumannii ATCC 19606 (MP-15); read-out: MIC
[4] = system: A. baumannii MP-577 Clinical-AZT low; conditions: Acinetobacter baumannii, read-out: MIC
[5] = system: P. aeruginosa MP-8 PAO1:mex (mex-oprM-deletion); conditions: Pseudomonas aeruginosa, PAO1
[6] = system: A. baumannii MP-576 Clinical-MDR; conditions: Acinetobacter baumannii, read-out: MIC
[7] = system: K. pneumoniae MP-546 Clinical-MDR; conditions: Klebsiella pneumoniae, read-out: MIC
[8] = system: K. pneumoniae MP-548 clinical; conditions: Klebsiella pneumoniae, MP548CLINICAL, read-out: MIC
[9] = system: E. coli MP-532 clinical-cErmB; conditions: Escherichia coli
Excerpt: (§1) MIC data was collected for the novel macrolides that this platform has produced against over 21 unique strains of B. subtilis, E. coli, S. aureus, S. pneumoniae, and H. influenzae, including several multidrug-resistant strains, with a special focus on macrolide resistant mechanisms (vide supra). Azithromycin (Azithro) and Solithromycin (Solithro) were included as a control macrolides in many cases. CLSI standard procedures for broth dilution MIC determination were used. […] These genotypes can be constitutive or inducible.

[10] = system: S. aureus (MRSA) MP-513 ST-228 cErm (Clinical-cErm); conditions: Staphylococcus aureus, read-out: MIC
Excerpt: as §1

[11] = system: E. coli MP-9 ATCC25922:tolC; conditions: Escherichia coli, ATCC25922
Excerpt: as §1

[12] = system: S. aureus ATCC 29213; conditions: Staphylococcus aureus, ATCC29213; S. aureus ATCC 29213 (MP-12); read-out: MIC
Excerpt: as §1

[13] = system: S. aureus MRSA: USA300; conditions: Staphylococcus aureus; S. aureus MRSA: USA300 (MP-549, msr(a)); read-out: MIC
Excerpt: as §1

[14] = system: S. aureus MP-17 ATCCBAA-977 (BAA 977 iErm); conditions: Staphylococcus aureus; S. aureus MP-17, ATCCBAA-977, iErm; read-out: MIC
Excerpt: as §1

[15] = system: E. coli MP-541 clinical; conditions: Escherichia coli, MP541CLINICAL, read-out: MIC
Excerpt: as §1

[16] = system: E. coli ATCC 25922; conditions: Escherichia coli, ATCC25922, E. coli ATCC 25922 (MP-4); read-out: MIC
Excerpt: as §1

[17] = system: K. pneumoniae ATCC 10031; conditions: Klebsiella pneumoniae, ATCC10031, K. pneumoniae ATCC 10031 (MP-14); read-out: MIC

SMILES: CC[C@H]1OC(=O)[C@@](C)(F)C(=O)[C@H](C)[C@@H](O[C@@H]2OC(C)CC(N(C)C)C2O)[C@](C)(OC)C[C@@H](C)C(=O)[C@H](C)[C@H]2N(CC#CCn3cc(-c4cncc(N)n4)nn3)C(=O)O[C@]12C (stereo partly shown) [FSM-22747]
- MIC [1]: > 64 µg/mL
- MIC [2]: > 64 µg/mL
- MIC [3]: 16 µg/mL (≈ 19 µM)
- MIC [4]: 32 µg/mL (≈ 38 µM)
- MIC [5]: 16 µg/mL (≈ 19 µM)
- MIC [6]: > 64 µg/mL
- MIC [7]: > 64 µg/mL
- MIC [8]: > 64 µg/mL
- MIC [9]: > 64 µg/mL
- MIC [10]: > 64 µg/mL
- MIC [11]: 4 µg/mL (≈ 4.75 µM)
- MIC [12]: 0.25 µg/mL (≈ 0.297 µM)
- MIC [13]: 0.5 µg/mL (≈ 0.593 µM)
- MIC [14]: 0.25 µg/mL (≈ 0.297 µM)
- MIC [15]: 32 µg/mL (≈ 38 µM)
- MIC [16]: 32 µg/mL (≈ 38 µM)
- MIC [17]: 8 µg/mL (≈ 9.49 µM)

SMILES: CC[C@H]1OC(=O)[C@H](C)C(=O)[C@H](C)[C@@H](O[C@@H]2OC(C)CC(N(C)C)C2O)[C@](C)(OC)C[C@@H](C)C(=O)[C@H](C)[C@H]2N(NCCCn3nnc4ccccc43)C(=O)O[C@]12C (stereo partly shown) [FSM-140133]
- MIC [1]: 64 µg/mL (≈ 81.3 µM)
- MIC [2]: 64 µg/mL (≈ 81.3 µM)
- MIC [3]: 8 µg/mL (≈ 10.2 µM)
- MIC [4]: 64 µg/mL (≈ 81.3 µM)
- MIC [5]: 8 µg/mL (≈ 10.2 µM)
- MIC [6]: > 64 µg/mL
- MIC [7]: > 64 µg/mL
- MIC [8]: 64 µg/mL (≈ 81.3 µM)
- MIC [9]: > 64 µg/mL
- MIC [10]: > 64 µg/mL
- MIC [11]: 4 µg/mL (≈ 5.08 µM)
- MIC [12]: 0.25 µg/mL (≈ 0.318 µM)
- MIC [13]: 0.5 µg/mL (≈ 0.635 µM)
- MIC [14]: 0.25 µg/mL (≈ 0.318 µM)
- MIC [15]: 16 µg/mL (≈ 20.3 µM)
- MIC [16]: 16 µg/mL (≈ 20.3 µM)
- MIC [17]: 4 µg/mL (≈ 5.08 µM)

SMILES: CC[C@H]1OC(=O)[C@@](C)(F)C(=O)[C@H](C)[C@@H](O[C@@H]2OC(C)CC(N(C)C)C2O)[C@](C)(OC)C[C@@H](C)C(=O)[C@H](C)[C@H]2N(CC#CCn3cc(-c4cc(N)ccn4)nn3)C(=O)O[C@]12C (stereo partly shown) [FSM-100593]
- MIC [1]: 32 µg/mL (≈ 38 µM)
- MIC [2]: 32 µg/mL (≈ 38 µM)
- MIC [3]: 8 µg/mL (≈ 9.5 µM)
- MIC [4]: 8 µg/mL (≈ 9.5 µM)
- MIC [5]: 2 µg/mL (≈ 2.38 µM)
- MIC [6]: > 64 µg/mL
- MIC [7]: 32 µg/mL (≈ 38 µM)
- MIC [8]: 16 µg/mL (≈ 19 µM)
- MIC [9]: > 64 µg/mL
- MIC [10]: 64 µg/mL (≈ 76 µM)
- MIC [11]: 0.5 µg/mL (≈ 0.594 µM)
- MIC [12]: 0.125 µg/mL (≈ 0.148 µM)
- MIC [13]: 0.25 µg/mL (≈ 0.297 µM)
- MIC [14]: 0.125 µg/mL (≈ 0.148 µM)
- MIC [15]: 8 µg/mL (≈ 9.5 µM)
- MIC [16]: 4 µg/mL (≈ 4.75 µM)
- MIC [17]: 1 µg/mL (≈ 1.19 µM)

SMILES: CC[C@H]1OC(=O)[C@@](C)(F)C(=O)[C@H](C)[C@@H](O[C@@H]2OC(C)CC(N(C)C)C2O)[C@](C)(OC)C[C@@H](C)C(=O)[C@H](C)[C@H]2N(CC#CCn3cc(-c4cccnn4)nn3)C(=O)O[C@]12C (stereo partly shown) [FSM-130217]
- MIC [1]: > 64 µg/mL
- MIC [2]: > 64 µg/mL
- MIC [3]: 16 µg/mL (≈ 19.3 µM)
- MIC [4]: 32 µg/mL (≈ 38.6 µM)
- MIC [5]: 16 µg/mL (≈ 19.3 µM)
- MIC [6]: > 64 µg/mL
- MIC [7]: > 64 µg/mL
- MIC [8]: > 64 µg/mL
- MIC [9]: > 64 µg/mL
- MIC [10]: > 64 µg/mL
- MIC [11]: 4 µg/mL (≈ 4.83 µM)
- MIC [12]: 0.25 µg/mL (≈ 0.302 µM)
- MIC [13]: 0.25 µg/mL (≈ 0.302 µM)
- MIC [14]: 0.25 µg/mL (≈ 0.302 µM)
- MIC [15]: 32 µg/mL (≈ 38.6 µM)
- MIC [16]: 32 µg/mL (≈ 38.6 µM)
- MIC [17]: 8 µg/mL (≈ 9.66 µM)

SMILES: CC[C@H]1OC(=O)[C@H](C)C(=O)[C@H](C)[C@@H](O[C@@H]2OC(C)CC(N(C)C)C2O)[C@](C)(OC)C[C@@H](C)C(=O)[C@H](C)[C@H]2N(NC/C=C/c3ccnc4ccccc34)C(=O)O[C@]12C (stereo partly shown) [FSM-140135]
- MIC [1]: > 64 µg/mL
- MIC [2]: > 64 µg/mL
- MIC [3]: > 64 µg/mL
- MIC [4]: > 64 µg/mL
- MIC [5]: 32 µg/mL (≈ 40.3 µM)
- MIC [6]: > 64 µg/mL
- MIC [7]: > 64 µg/mL
- MIC [8]: > 64 µg/mL
- MIC [9]: > 64 µg/mL
- MIC [10]: > 64 µg/mL
- MIC [11]: 16 µg/mL (≈ 20.1 µM)
- MIC [12]: 2 µg/mL (≈ 2.52 µM)
- MIC [13]: 2 µg/mL (≈ 2.52 µM)
- MIC [14]: 2 µg/mL (≈ 2.52 µM)
- MIC [15]: > 64 µg/mL
- MIC [16]: > 64 µg/mL
- MIC [17]: 8 µg/mL (≈ 10.1 µM)
